# Reference: US20250319115A1, “Compositions and Methods for Modulating Cytokines” (Flagship Pioneering Innovations VII, LLC, priority 2022, published 2025)
# System: CD3/CD28 (TransAct) activated PBMCs
# Assay: PBMC cytokine release by Cytometric BeadArray, Inhibition format (peptide with anti-CD3/CD28 T-cell activator)
# Assay type: cell-based, human
# Parameters: key to Inhibition by Analyte: IL-1b / Inhibition by Analyte: IL-2 / Inhibition by Analyte: TNF / Inhibition by Analyte: IP-10 / Inhibition by Analyte: IL-10: X = a hit with significant activation or inhibition of relevant cytokine release
# Conditions: CD3/CD28 (TransAct) activated PBMCs, FIG. 7
# Experimental: (§1) Peripheral Blood Mononuclear Cells were seeded+/−the T-cell activator […] and +/−peptides for 24-48 hours. Cytokines were measured from the supernatant after incubation by CBA Cytometer.
# (§2) Thawing PBMCs: PBMCs were thawed by pre-warming TexMACS media (Miltenyi Biotech) in 20 ml aliquots-1-50 ml conical per donor. After the media was warmed to 37° C., cells were removed from liquid nitrogen and brought to the tissue culture hood. For each donor, 1 ml of media from the warmed aliquot was added to the frozen vial and mixed up and down. The media plus thawed cells were then added back to the 50 ml conical. This was repeated until all the cells were thawed and added to the 50 ml tube. Continue with other donors if used. Spin cells for 5 min at 400×g. Supernatant was aspirated and cells resuspended at ˜10*10^6 cells/ml (see vial for cell number).
# (§3) PBMC Plating: Frozen PBMCs from normal, healthy, human volunteers (StemCell Technologies) were thawed and plated at 250,000 cells/well. After PBMCs were thawed and resuspended at […], cells were then counted (Countess III, Thermo Scientific) and adjusted based on counts to […]. Take the number of PBMCs determined by number of wells for the experiment, for example, 10 wells would need 2.5*10^6 cells total or 0.250 ml. The cells needed for the experiment are then transferred to another conical tube. Warmed TexMACS media is added so that the final concentration is 250,000 cells/190 ul media, for example, 10 wells would need 1.9 ml (190 ul×10 wells) of media total minus 0.250 ml of cells (1.9 ml-0.250 ml) or 1.65 ml of media added to the 0.250 ml of cells. Add 190 ul of cells plus media to the 96 well U-bottom plate. Place in incubator until dilutions are made and ready.
# (§4) Peptide Dilutions: Ideally, all peptides should be at a starting concentration of at least 10 mM, especially for those in DMSO (ATCC) to reach a final concentration of 1 uM (H2O) or 0.5 uM (DMSO). Dilutions of all test articles should be made at 20× the final concentration, for example, a final concentration of 1 uM peptide would need to be made at 20 uM.
# (§5) Reagent Dilution: Dilutions are made in TexMACS media, enough for 10 ul/well in triplicate (30 ul of a 20×). Activator—CD3/CD28 (TransAct; Miltenyi Biotech) or cytokine will be at 21× and added after the 45-minute incubation with peptides. Be sure to include relevant controls—Positive: TransAct+Cells, Negative: Vehicle+Cells. Dilutions should also be made in a ultra-low binding plate (Corning).
# (§6) Assay Procedure: Peptide Treatment: Start assay by thawing the cells and plating in a 96 well, U-bottom tissue culture plate (Corning) as described above. Cell plates are placed in a tissue culture incubator (5% CO2, 37° C.). While cells are in the incubator, start making dilutions (optimally 1 hr or less) as described above. Cell plates are removed from the incubator and 10 ul of the 20× dilutions are added to the relevant wells. After the addition of inhibitors, cell plates are placed in the tissue culture incubator for 45 minutes. The plates are removed from the incubator and 10 ul of 21× TransAct is added to the relevant wells*. Plates are then returned to the incubator and incubated for 24 hours. After 24 hours, plates are spun for 5 minutes at 400×g.
# (§7) * Activation: This assay can be run in two different formats—Activation and Inhibition. The procedure is the same except no TransAct is needed in the peptide wells for Activation. TransAct is only needed in the control wells. The purpose of this procedure is to determine the possible response from peptides alone.
# (§8) Cytometric BeadArray (CBA): After the spin, supernatants (˜150 ul) are transferred to a new, ultra-low binding U-bottom plate. Supernatants are then frozen at −20° C. until thawed for CBA (BD) to determine levels of human IL-2, TNFα, IL-1b, IP-10, IL-10, and IFNg. CBA was run according to the manufacturers protocol.
row,Molecule,release of TNF-alpha from activated PBMCs
1,"SEQ ID NO: 3585: target protein, anti-inflammatory cytokine modulator, secreted peptide (VAEPRRGHLKAALASLGGAAPAAATNGSPPLFK; listed as Homo sapiens)",significantly blocks

# Same assay, conditions: CD3/CD28 (TransAct) activated PBMCs, FIG. 8
row,Molecule,release of IL-1b from activated PBMCs
1,"SEQ ID NO: 3585: target protein, anti-inflammatory cytokine modulator, secreted peptide (VAEPRRGHLKAALASLGGAAPAAATNGSPPLFK; listed as Homo sapiens)",does not block

# Same assay, conditions: peptide applied with anti-CD3/CD28 T-cell activator, 24 hours, supernatant CBA
Molecule,Inhibition by Analyte: IL-1b,Inhibition by Analyte: TNF,Inhibition by Analyte: IL-2,Inhibition by Analyte: IP-10,Inhibition by Analyte: IL-10
"SEQ ID NO: 4615: target protein of the Sequence Listing, secreted peptide (MTAFGLGIPTFLVMQPSGSQPRFPALTQNGVALVRTPLTSVYLRVRICRVLGPRSQPS; listed as Homo sapiens)",X,X,–,–,–
"SEQ ID NO: 5843: target protein of the Sequence Listing, secreted peptide (MGGKSWLFFYSLVFCALLPLPRREDPFKLF; listed as Homo sapiens)",X,–,–,–,–
"SEQ ID NO: 6518: target protein of the Sequence Listing, secreted peptide (MSFDHPEKNGPWPADPINLPSHG; listed as Homo sapiens)",–,X,X,–,–
"SEQ ID NO: 5862: target protein of the Sequence Listing, secreted peptide (MESRTLLLLFSGAVALIQTWADYNYNQGRNDLIFTLQLWKRQ; listed as Homo sapiens)",X,–,–,–,–
"SEQ ID NO: 3585: target protein, anti-inflammatory cytokine modulator, secreted peptide (VAEPRRGHLKAALASLGGAAPAAATNGSPPLFK; listed as Homo sapiens)",X,X,X,–,–
"SEQ ID NO: 1184: target protein of the Sequence Listing, synthesized peptide (LEMEGGCSPPIPHAGHRWKCQTVRVHA; listed as Homo sapiens)",X,X,X,X,–
"SEQ ID NO: 4174: target protein of the Sequence Listing, secreted peptide (MRSPLSASALLLWSSSVARAFSSPSLLMAVPSPTCSRY; listed as Homo sapiens)",X,X,–,X,X
"SEQ ID NO: 5627: target protein of the Sequence Listing, secreted peptide (MSEVATLLFSQTALASLESVHPAGHKLWMRNLRQVTSP; listed as Homo sapiens)",–,X,X,–,–

# System: Peripheral Blood Mononuclear Cells
# Assay: PBMC cytokine release by Cytometric BeadArray, Activation format (peptide applied to PBMCs alone)
# Assay type: cell-based, human
# Parameters: key: X = a hit with significant activation or inhibition of relevant cytokine release
# Conditions: 24 hours, supernatant CBA
# Experimental: as §1, §2, §3, §4, §5, §6, §7, §8
Molecule,Activation by Analyte: IL-10,Activation by Analyte: IP-10,Activation by Analyte: IL-2,Activation by Analyte: IL-1b
"SEQ ID NO: 4615: target protein of the Sequence Listing, secreted peptide (MTAFGLGIPTFLVMQPSGSQPRFPALTQNGVALVRTPLTSVYLRVRICRVLGPRSQPS; listed as Homo sapiens)",X,X,–,–
"SEQ ID NO: 5730: target protein of the Sequence Listing, secreted peptide (MVSHRKDWRRVNLRFSSCLLLSICLDDKPSADELCFWTDHGRSQLTCPSLGVSQGHARSS; listed as Homo sapiens)",–,X,–,–
"SEQ ID NO: 3462: target protein of the Sequence Listing, secreted peptide (METSCSLWVSSELFCRSVKVFFCLLALHLSALPHSSWTQDKNLGLAGMVELK; listed as Homo sapiens)",–,X,–,–
"SEQ ID NO: 6295: target protein of the Sequence Listing, secreted peptide (MWWKTPCWWTPSTTATSSSAEARSCGRLLKSMAG; listed as Homo sapiens)",–,X,–,–
"SEQ ID NO: 5848: target protein of the Sequence Listing, secreted peptide (MARPLSLAAAGAPDLLFTALCSLLIEAQPLRPFDLQVLGDPQPRARTP; listed as Homo sapiens)",–,–,X,–
"SEQ ID NO: 5931: target protein of the Sequence Listing, secreted peptide (peptide, listed as Homo sapiens) MSCGSRRGPSLASSLAWLQLQSGTRPFCSSSPPYFLSHGRRIPFSHPRKESALRATKEPRTHRTNTSLADLPSPAPAHL",–,–,–,X
"SEQ ID NO: 3169: target protein of the Sequence Listing, secreted peptide (peptide, listed as Homo sapiens) MCHKGWHGPGVPHHVAFTPCKARLRPATQCQAHSSPRRKMVQAGSIPLAAASGRLCLTHAGWWRGAS",–,X,–,–
"SEQ ID NO: 5631: target protein of the Sequence Listing, secreted peptide (peptide, listed as Homo sapiens) MMAQKSKFRVLFMSDPHGTAMPLTSAILESSRASLAAKQEDKCFTDIRNLKWKHFLEHTKQPP",–,X,–,–
"SEQ ID NO: 3494: target protein of the Sequence Listing, secreted peptide (peptide, listed as Homo sapiens) MSYLPTNPPGSILTCWLGVSLGSHRSARGGSTIYGRLLPRRKDVWFSQAKDVPKYRGLLYLQS",–,X,–,–
"SEQ ID NO: 4566: target protein of the Sequence Listing, secreted peptide (peptide, listed as Homo sapiens) LRPRSAAFAPRYTRLVMRRSSRSFRLQCTGFPSSSAQSISAHLSNSMPSSLLTISRCPGMFAVRCPL",–,X,–,–
"SEQ ID NO: 5537: target protein of the Sequence Listing, secreted peptide (peptide, listed as Homo sapiens) MQRLPAAFFRSFAAQGLGESVHINTPTSLSLRGRPFISSSGPGARARVTCAPCLHAARILCCFWRGLHR",–,X,–,–
"SEQ ID NO: 6517: target protein of the Sequence Listing, secreted peptide (peptide, listed as Homo sapiens) VALSLLTSQGRQRRAGPSTAFAALPATVATFSAMTESESLRTSRHADTALARVRRGAKFRGQARTRYCARARSHRFTPPSGA",–,X,–,–
